Results reported in article PMC11864979, “First-in-class ultralong-target-residence-time p38α inhibitors as a mitosis-targeted therapy for colorectal cancer” (Nature Cancer, 2025).
Where two headings read alike, the source gives them in different places.

What was measured:
Assay in all cases: selectivity profiling in a panel of 340 wild-type kinases (Reaction Biology Europe)
Format in all cases: binding
340 wild-type kinases [1] = target: T1, 340 wild-type kinases (Homo sapiens, UniProt Q5VT25)
T1 construct: purchased Reaction Biology Europe

340 wild-type kinases [2] = target: T2, 340 wild-type kinases (Homo sapiens, UniProt Q14164)
T2 construct: purchased Reaction Biology Europe
T2 sequence (Q14164 1-716): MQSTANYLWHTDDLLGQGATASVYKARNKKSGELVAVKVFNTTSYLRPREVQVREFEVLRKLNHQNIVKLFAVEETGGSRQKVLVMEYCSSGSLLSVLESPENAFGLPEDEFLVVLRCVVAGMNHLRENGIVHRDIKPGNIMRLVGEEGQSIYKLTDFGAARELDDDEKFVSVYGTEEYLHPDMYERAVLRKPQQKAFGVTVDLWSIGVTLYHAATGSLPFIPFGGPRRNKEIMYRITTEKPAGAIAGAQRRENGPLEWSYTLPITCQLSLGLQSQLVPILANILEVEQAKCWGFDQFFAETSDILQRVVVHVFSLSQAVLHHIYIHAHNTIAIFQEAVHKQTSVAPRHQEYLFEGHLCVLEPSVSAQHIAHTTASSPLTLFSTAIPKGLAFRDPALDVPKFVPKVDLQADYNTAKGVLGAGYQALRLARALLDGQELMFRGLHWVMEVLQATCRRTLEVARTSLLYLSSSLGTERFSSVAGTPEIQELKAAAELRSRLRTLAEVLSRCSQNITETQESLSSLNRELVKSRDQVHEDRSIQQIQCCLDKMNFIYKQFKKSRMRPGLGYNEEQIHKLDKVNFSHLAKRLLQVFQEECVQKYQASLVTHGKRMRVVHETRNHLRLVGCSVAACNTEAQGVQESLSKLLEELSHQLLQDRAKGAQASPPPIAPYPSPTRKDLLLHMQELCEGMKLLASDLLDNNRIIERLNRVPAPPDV

340 wild-type kinases [3] = target: T3, 340 wild-type kinases (Homo sapiens, UniProt Q15746)
T3 construct: purchased Reaction Biology Europe

340 wild-type kinases [4] = target: T4, 340 wild-type kinases (Homo sapiens, UniProt P29320)
T4 construct: purchased Reaction Biology Europe
T4 sequence (P29320 21-983): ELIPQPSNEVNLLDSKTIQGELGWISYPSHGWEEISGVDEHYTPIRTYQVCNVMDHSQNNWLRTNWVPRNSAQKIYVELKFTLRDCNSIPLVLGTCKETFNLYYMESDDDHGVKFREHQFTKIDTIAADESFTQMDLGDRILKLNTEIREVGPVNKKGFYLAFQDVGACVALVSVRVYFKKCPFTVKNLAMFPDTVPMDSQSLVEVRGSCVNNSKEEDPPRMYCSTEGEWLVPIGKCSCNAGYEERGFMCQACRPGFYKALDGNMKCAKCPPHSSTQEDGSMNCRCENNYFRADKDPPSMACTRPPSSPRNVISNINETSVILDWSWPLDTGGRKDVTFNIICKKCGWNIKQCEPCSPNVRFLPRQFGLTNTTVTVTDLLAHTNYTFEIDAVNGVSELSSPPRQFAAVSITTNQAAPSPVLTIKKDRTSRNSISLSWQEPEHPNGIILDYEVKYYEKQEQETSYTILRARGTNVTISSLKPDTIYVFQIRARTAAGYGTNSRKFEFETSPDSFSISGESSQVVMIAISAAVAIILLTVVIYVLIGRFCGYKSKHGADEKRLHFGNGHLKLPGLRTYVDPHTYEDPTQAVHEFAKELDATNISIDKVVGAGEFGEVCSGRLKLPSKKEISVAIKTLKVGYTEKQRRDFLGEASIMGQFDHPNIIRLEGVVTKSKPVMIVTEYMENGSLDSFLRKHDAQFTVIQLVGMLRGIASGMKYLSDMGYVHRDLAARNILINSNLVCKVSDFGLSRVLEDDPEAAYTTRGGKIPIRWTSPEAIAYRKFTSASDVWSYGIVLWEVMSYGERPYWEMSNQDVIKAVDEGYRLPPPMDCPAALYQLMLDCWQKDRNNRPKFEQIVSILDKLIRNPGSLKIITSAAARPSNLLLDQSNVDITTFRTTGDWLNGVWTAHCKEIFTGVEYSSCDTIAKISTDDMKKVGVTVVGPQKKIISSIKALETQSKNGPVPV

340 wild-type kinases [5] = target: T5, 340 wild-type kinases (Homo sapiens, UniProt P00519)
T5 construct: purchased Reaction Biology Europe

340 wild-type kinases [6] = target: T6, 340 wild-type kinases (Homo sapiens, UniProt O43318)
T6 construct: purchased Reaction Biology Europe
T6 sequence (O43318 1-606): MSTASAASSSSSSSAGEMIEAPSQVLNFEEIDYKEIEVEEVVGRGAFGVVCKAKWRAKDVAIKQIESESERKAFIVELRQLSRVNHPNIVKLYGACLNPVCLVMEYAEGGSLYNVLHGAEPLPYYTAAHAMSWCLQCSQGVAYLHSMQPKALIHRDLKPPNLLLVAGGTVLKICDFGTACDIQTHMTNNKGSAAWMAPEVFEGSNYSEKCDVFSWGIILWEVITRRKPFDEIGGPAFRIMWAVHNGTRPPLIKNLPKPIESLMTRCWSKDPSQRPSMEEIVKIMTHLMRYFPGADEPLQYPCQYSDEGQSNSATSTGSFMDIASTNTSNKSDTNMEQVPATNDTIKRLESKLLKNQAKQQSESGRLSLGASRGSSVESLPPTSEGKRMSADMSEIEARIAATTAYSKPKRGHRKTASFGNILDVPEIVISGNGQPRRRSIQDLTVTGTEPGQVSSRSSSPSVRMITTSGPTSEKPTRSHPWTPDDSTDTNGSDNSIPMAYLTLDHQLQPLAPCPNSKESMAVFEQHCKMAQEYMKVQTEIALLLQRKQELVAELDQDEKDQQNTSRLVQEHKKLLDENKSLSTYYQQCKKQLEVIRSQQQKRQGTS

T1 sequence (Q5VT25 whole entry): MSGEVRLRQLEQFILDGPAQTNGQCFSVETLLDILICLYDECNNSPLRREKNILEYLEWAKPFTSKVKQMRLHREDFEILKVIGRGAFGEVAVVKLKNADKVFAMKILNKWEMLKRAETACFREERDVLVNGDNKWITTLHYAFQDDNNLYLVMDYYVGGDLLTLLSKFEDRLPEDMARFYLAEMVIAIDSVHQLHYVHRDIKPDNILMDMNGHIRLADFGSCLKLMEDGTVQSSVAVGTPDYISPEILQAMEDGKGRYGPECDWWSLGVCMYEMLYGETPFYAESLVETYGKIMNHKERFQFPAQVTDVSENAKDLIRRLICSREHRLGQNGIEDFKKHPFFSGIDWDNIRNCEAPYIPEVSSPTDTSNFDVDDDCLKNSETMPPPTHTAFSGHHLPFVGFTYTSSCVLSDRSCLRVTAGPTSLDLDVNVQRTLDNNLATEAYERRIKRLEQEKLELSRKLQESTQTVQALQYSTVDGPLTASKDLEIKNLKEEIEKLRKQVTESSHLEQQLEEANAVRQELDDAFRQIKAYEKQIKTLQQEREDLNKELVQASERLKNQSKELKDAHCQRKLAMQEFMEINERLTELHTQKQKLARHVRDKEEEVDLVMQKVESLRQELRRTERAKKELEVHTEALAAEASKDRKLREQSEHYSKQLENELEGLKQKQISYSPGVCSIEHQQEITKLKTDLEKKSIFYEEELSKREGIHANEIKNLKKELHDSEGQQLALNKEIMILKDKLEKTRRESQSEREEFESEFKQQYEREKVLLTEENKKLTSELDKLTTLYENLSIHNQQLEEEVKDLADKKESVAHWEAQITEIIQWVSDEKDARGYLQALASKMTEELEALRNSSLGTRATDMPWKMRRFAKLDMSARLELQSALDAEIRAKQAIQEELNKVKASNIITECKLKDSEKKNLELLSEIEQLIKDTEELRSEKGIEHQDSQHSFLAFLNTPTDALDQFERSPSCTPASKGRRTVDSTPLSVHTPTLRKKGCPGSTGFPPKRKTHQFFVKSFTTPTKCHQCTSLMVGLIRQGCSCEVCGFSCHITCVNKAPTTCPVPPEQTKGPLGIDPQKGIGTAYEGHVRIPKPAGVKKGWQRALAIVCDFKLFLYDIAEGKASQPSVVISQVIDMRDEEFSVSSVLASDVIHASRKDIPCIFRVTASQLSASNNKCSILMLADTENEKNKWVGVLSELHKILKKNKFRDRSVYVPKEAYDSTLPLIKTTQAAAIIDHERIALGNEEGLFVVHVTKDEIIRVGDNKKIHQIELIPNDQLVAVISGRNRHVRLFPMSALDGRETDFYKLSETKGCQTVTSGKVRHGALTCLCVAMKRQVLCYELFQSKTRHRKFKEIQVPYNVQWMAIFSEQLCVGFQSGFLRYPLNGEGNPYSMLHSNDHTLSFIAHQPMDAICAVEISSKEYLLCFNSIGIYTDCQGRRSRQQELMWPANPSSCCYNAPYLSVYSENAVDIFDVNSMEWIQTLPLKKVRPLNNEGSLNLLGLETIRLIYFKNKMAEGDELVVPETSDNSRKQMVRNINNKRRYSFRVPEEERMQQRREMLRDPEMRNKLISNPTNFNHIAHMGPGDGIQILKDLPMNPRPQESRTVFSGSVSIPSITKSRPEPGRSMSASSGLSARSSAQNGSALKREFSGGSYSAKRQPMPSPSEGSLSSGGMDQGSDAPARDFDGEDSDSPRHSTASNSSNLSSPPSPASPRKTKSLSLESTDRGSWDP
T5 sequence (P00519 whole entry): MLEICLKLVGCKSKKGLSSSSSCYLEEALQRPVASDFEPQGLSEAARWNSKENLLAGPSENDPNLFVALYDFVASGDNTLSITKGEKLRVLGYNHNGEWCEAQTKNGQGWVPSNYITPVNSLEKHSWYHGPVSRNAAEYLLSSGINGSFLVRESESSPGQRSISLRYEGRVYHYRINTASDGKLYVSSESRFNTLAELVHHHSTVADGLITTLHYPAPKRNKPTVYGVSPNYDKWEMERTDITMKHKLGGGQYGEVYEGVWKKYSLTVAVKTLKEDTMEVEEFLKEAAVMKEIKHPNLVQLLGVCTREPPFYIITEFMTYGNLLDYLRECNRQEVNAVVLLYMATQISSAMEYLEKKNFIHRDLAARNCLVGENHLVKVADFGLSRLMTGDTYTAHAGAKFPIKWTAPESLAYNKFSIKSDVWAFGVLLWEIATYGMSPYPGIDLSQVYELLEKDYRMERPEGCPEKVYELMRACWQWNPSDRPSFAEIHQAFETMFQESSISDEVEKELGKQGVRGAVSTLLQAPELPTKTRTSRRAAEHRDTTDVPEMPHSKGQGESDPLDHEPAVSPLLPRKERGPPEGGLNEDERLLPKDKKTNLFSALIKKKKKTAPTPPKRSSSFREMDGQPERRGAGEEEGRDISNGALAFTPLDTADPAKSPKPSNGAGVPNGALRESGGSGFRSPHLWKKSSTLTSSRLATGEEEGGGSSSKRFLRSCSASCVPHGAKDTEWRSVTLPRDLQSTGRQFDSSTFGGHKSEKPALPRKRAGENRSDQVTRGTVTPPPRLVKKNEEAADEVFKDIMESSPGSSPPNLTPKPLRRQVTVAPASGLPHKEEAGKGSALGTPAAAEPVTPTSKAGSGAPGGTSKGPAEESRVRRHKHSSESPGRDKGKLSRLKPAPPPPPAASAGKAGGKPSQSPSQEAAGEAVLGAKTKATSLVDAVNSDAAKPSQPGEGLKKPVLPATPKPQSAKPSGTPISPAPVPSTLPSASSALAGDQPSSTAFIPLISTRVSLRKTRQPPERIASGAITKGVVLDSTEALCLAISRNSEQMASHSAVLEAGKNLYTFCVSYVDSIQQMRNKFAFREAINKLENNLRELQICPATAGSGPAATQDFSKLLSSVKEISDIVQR
T3 sequence (Q15746 whole entry): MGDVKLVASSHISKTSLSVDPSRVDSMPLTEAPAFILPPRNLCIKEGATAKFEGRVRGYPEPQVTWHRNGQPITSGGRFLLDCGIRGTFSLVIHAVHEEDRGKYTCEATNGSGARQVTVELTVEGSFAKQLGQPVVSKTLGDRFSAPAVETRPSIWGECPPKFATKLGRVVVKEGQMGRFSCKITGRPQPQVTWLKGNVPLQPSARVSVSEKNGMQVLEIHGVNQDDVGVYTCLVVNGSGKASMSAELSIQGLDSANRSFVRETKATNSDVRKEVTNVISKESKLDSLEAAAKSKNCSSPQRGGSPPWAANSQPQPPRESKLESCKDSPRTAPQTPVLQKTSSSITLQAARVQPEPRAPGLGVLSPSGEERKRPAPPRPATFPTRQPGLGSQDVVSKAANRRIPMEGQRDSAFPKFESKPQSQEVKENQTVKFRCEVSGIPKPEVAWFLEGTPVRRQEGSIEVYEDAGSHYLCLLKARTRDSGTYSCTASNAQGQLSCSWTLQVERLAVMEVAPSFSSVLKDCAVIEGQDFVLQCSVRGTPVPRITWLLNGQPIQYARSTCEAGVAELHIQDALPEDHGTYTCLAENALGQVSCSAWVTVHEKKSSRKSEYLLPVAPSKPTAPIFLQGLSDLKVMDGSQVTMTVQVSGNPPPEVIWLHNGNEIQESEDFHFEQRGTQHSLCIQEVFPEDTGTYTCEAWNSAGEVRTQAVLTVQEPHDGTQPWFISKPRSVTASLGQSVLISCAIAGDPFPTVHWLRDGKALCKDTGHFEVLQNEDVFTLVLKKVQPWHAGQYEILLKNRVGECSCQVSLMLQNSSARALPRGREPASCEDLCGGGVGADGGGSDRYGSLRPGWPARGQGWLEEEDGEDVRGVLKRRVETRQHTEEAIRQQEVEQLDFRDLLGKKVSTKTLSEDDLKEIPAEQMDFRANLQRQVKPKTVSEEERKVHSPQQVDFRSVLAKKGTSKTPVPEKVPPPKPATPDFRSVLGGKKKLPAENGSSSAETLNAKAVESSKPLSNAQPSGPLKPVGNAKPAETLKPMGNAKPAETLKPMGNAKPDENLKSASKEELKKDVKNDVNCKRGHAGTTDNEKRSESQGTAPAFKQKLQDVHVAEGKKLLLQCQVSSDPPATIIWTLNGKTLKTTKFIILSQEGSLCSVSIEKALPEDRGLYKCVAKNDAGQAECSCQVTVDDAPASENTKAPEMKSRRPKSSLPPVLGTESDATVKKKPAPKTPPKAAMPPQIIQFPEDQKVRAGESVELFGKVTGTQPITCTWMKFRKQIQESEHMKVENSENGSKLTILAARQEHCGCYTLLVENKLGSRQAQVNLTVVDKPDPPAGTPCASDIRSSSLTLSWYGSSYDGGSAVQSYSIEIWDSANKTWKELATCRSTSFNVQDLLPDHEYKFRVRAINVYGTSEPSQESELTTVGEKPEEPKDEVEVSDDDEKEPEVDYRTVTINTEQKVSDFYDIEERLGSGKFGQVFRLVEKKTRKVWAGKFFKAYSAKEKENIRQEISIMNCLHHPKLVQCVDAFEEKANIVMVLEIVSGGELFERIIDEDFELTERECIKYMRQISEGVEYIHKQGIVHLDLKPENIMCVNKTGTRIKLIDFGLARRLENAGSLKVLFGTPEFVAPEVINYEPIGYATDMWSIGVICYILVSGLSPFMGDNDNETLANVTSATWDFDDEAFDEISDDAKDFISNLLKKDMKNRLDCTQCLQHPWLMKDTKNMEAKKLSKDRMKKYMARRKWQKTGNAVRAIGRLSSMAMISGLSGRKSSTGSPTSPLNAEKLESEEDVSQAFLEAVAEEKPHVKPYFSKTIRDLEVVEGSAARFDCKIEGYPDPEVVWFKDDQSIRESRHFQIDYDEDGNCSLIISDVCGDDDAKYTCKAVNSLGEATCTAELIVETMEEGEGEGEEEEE

SMILES: CNC(=O)c1ccc2c(c1)C(=O)c1ccc(Nc3ccc(F)c(NC(=O)C4CC4)c3)cc1CC2 [Compound 2015]
- remaining activity at 0.2 µM (340 wild-type kinases [1]; 0.2 µM 2015, read-out: CDC42BPA residual activity): 118%
- remaining activity at 1 µM (340 wild-type kinases [1]; 1 µM 2015, read-out: CDC42BPA residual activity): 112%
- remaining activity at 0.2 µM (340 wild-type kinases [1]; CDC42BPA, 0.2 µM, read-out: residual activity): 118%
- remaining activity at 1 µM (340 wild-type kinases [1]; CDC42BPA, 1 µM, read-out: residual activity): 112%
- remaining activity at 0.2 µM (340 wild-type kinases [2]; 0.2 µM 2015, read-out: IKKepsilon residual activity): 103%
- remaining activity at 1 µM (340 wild-type kinases [2]; 1 µM 2015, read-out: IKKepsilon residual activity): 92.6%
- remaining activity at 0.2 µM (340 wild-type kinases [2]; IKKepsilon, 0.2 µM, read-out: residual activity): 103%
- remaining activity at 1 µM (340 wild-type kinases [2]; IKKepsilon, 1 µM, read-out: residual activity): 92.6%
- remaining activity at 0.2 µM (340 wild-type kinases [3]; 0.2 µM 2015, read-out: MYLK residual activity): 109%
- remaining activity at 1 µM (340 wild-type kinases [3]; 1 µM 2015, read-out: MYLK residual activity): 97.7%
- remaining activity at 0.2 µM (340 wild-type kinases [3]; MYLK, 0.2 µM, read-out: residual activity): 109%
- remaining activity at 1 µM (340 wild-type kinases [3]; MYLK, 1 µM, read-out: residual activity): 97.7%
- remaining activity at 0.2 µM (340 wild-type kinases [4]; 0.2 µM 2015, read-out: EPHA3 residual activity): 100%
- remaining activity at 1 µM (340 wild-type kinases [4]; 1 µM 2015, read-out: EPHA3 residual activity): 96.4%
- remaining activity at 0.2 µM (340 wild-type kinases [4]; EPHA3, 0.2 µM, read-out: residual activity): 100%
- remaining activity at 1 µM (340 wild-type kinases [4]; EPHA3, 1 µM, read-out: residual activity): 96.3%
- remaining activity at 0.2 µM (340 wild-type kinases [5]; 0.2 µM 2015, read-out: ABL1 residual activity): 108%
- remaining activity at 1 µM (340 wild-type kinases [5]; 1 µM 2015, read-out: ABL1 residual activity): 99.6%
- remaining activity at 0.2 µM (340 wild-type kinases [5]; ABL1, 0.2 µM, read-out: residual activity): 108%
- remaining activity at 1 µM (340 wild-type kinases [5]; ABL1, 1 µM, read-out: residual activity): 99.6%
- remaining activity at 0.2 µM (340 wild-type kinases [6]; 0.2 µM 2015, read-out: MAP3K7/MAP3K7IP1 residual activity): 96.8%
- remaining activity at 1 µM (340 wild-type kinases [6]; 1 µM 2015, read-out: MAP3K7/MAP3K7IP1 residual activity): 93.9%
- remaining activity at 1 µM (340 wild-type kinases [6]; MAP3K7/MAP3K7IP1, 1 µM, read-out: residual activity): 93.9%
